The values below come from patent publication US9353075B2, “Disubstituted beta-lactones as inhibitors of N-acylethanolamine acid amidase (NAAA)” (The Regents of the University of California, priority 2011, dated 2016).

Test [1] concerns the target h-NAAA (Homo sapiens (Human), UniProt Q02083). The test is described as follows: UPLC/MS h-NAAA assay. It is filed as biochemical. The protocol:
NAAA protein preparation (10 μg) was pre-incubated with various concentrations of test compound or vehicle control in 100 mM NaH2PO4, 100 mM Tri Sodium Citrate Dehydrate, 0.1% Triton-X 100, 3 mM DTT, pH 4.5 for 30 min at 37° C. Duplicate samples were then incubated with 50 μM C17:1 10-cis-heptadecenoylethanolamide (Avanti Polar Lipids, Alabaster, Ala.—USA) at 37° C. for 30 minutes. The reaction was terminated by the addition of 0.2 mL of cold methanol containing 1 nmol of heptadecanoic acid (NuChek Prep, Elysian, Minn.—USA) as internal standard. Samples were then analyzed by UPLC/MS. Heptadecenoic and heptadecanoic acids were eluted on an Acquity UPLC BEH C18 column (50 mm length, 2.1 mm i.d., 1.7 μm pore size, Waters) isocratically at 0.5 mL/min for 1.5 min with a solvent mixture of 95% methanol and 5% water, both containing 0.25% Acetic Acid and 5 mM Ammonium Acetate. The column temperature was 40° C. Electrospray ionization was in the negative mode, capillary voltage was 2.7 kV, cone voltage was 45 V, extractor voltage was 3 V. The source temperature was 150° C. with a desolvation temperature of 400° C. N2 was used as drying gas at a cone flow of 100 L/hour and a desolvation flow of […]. The [M−H]-ion was monitored in the selected-ion monitoring mode (m/z values: heptadecenoic acid 267.37, heptadecanoic acid 269.37). Calibration curves were generated using commercial heptadecenoic acid (NuCheck Prep) Inhibition of NAAA activity was calculated as reduction of heptadecenoic acid in the samples compared to vehicle controls. IC50 values were calculated by non-linear regression analysis of log [concentration]/inhibition curves using GraphPad Prism 5 (GraphPad Software Inc., CA—USA) applying a standard slope curve fitting.

Test [2] relates to DNFB-induced dermatitis. The test is described as follows: DNFB contact dermatitis in mice, ear thickness. It counts as in vivo, mouse. The protocol: 2,4-dinitrofluorobenzene (DNFB) (Sigma-Aldrich, Italy) was dissolved in acetone. On day 1 and 2, mice (CD1, 25-30 g, Charles River, Calco, Italy) were sensitized on the skin of the abdomen with hapten (20 μL of 0.5% DNFB). After 5 days, on day 7, mice were challenged with hapten (20 μL of 0.2% DNFB) in the earlobe and treated with drugs to be tested. Control group received the vehicle used to dissolve drugs. Mice (five per group) were placed in a plastic cage. On day 8, ear thickness was determined after challenge using a caliper. Results are expressed as absolute ear thickness.
Fresh drug suspensions of compound 6 were prepared immediately before use in a vehicle consisting of petrolatum plus 5% lauric acid and given in a volume of 20 μL/mouse. Mice were treated with different concentrations of compound 6 or vehicle together with DNFB challenge on […].
Compound 6 and the reported β-lactone NAAA inhibitor (S)-OOPP (Solorzano et al., Proceedings of the National Academy of Science USA 2009, 106, 20966-20971; Solorzano et al., Journal of Medicinal Chemistry 2010, 53, 5770-5781) were tested in this model for their contact sensitivity response. Fresh drug solutions of (S)-OOPP and compound 6 were prepared immediately before use in polyethylene glycol 400 (PEG 400) and given in a volume of 20 μL/ear. Mice were treated with different concentrations of (S)-OOPP, 0.1% compound 6 or vehicle each day for 7 days. Ear thickness was determined on day 0 and every day before challenge using a caliper. Results are expressed as absolute ear thickness.
(§1) The methods included the following. Dermatitis was produced in mice using 2-4 dinitrofluorobenzene (DNFB) as described by Buckley and Nijkamp (1994), Am J Respir Grit Care Med 149:400-7. Mice were sensitized on two consecutive days with a 0.5% DNFB solution applied to the shaved abdomen. At day 8, the ears were challenged with a 0.2% DNFB solution. Ear thickness was determined by using a micrometer. Scratching was evaluated as number of episodes per 60 minutes period. Data were analysed by ANOVA followed by the Bonferroni's test. See also Hargreaves K, et al (1988), Pain 32: 77-88 for related information.

Test [3] has as its system IL-4, IL-5, IFN-g, and IgE blood levels. Briefly: Immune response in DNFB-induced dermatitis. To be noted: mice, topical. It counts as in vivo, mouse. As to the method:
The methods include the following. Dermatitis in mice was induced with 2-4 Dinitrofluorobenzene (DNFB) as previously described. IL-4, IL-5, IFN-g, and IgE blood levels were determined by immunoassays. The effect of compound 6 was tested using a single treatment protocol.

In test [4] the test system is DNFB-induced scratching. The test is described as follows: DNFB-induced scratching in mice. It is filed as in vivo, mouse. To be noted: topical, single dose. As to the method: as §1
The methods include the following. Itching in mice was induced with DNFB as previously described. Additional studies were done with 48/80 model (an inducer of mast cell degranulation). 48/80 was given subcutaneously (30 mg per kg). Data were analysed by ANOVA followed by Bonferroni's test for multiple comparisons.

The mark [5] stands for this setting: established DNFB-induced ear edema.
Setting [6] is: repeated dosing, 8 days before DNFB challenge.

“Also recorded” adds a separate entry of the source.

Chain of h-NAAA (Q02083 29-359): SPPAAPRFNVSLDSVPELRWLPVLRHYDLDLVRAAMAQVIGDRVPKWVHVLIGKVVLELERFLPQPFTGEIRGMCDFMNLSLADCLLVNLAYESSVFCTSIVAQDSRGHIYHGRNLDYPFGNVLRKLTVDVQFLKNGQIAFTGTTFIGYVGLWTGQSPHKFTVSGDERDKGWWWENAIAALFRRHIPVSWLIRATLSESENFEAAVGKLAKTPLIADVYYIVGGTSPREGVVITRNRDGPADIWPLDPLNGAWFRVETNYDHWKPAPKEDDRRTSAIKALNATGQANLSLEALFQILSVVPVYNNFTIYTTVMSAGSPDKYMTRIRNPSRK

One may read the IC50 as the concentration at which inhibition is half-maximal. High values mean weaker potency, low ones greater potency. In the case of `C[C@@H]1OC(=O)[C@@H]1NC(=O)OCCCCCc1ccccc1` [Example 6, 5-phenylpentyl-[(2S,3R)-2-methyl-4-oxooxetan-3-yl]-carbamate], in test [1], inhibition was half-maximal at 7 nM (IC50). Further, in test [2] (setting [5]), the “Doses of full efficacy, single dosing protocol” value is 10-30%; the “Effective dose-range, repeated dosing protocol” value was 0.01-1%; the “Time of administration to full efficacy, repeated dosing” value turned out to be 3 days. Moreover, the “Ear swelling 24 h after DNFB challenge” value in test [2] (mice, 1-30% w/w suspension in petrolatum plus 5% lauric acid) is “dose-dependently inhibited ear swelling”. Further, the “Contact sensitivity response (ear swelling)” value in test [2] (mice, PEG 400 solution, each day for 7 days, (S)-OOPP 0.1-10% w/v, compound 6 0.1%) was “significant decrease in ear swelling”. For the same compound, in test [2] (mice, topical, repeated dosing), the “Established DNFB-induced ear edema (therapeutic effect), repeated dosing” value was “reverses ear thickness increase; also recorded: reverses established DNFB-induced ear edema”. Moreover, the “Established DNFB-induced ear thickness increase, single dosing” value in test [2] (mice, topical, single administration) is “reverses ear thickness increase; also recorded: efficacy is also noted”. In addition, in test [2] (setting [6]), the “Doses of complete efficacy, prophylactic protocol” value is listed as 0.1-1% and the “Prevention of DNFB-induced ear edema (prophylactic effect)” value is given as “prevents the development of DNFB-induced symptoms; also recorded: prevents DNFB-induced increased ear edema”. For the same compound, in test [3], the “Dose range of full efficacy on immune response, single administration” value was in the range of 1 to 30%; the “Effect on immune response compared with steroids” value is “superior to that of steroids”; the “Immunological responses in DNFB dermatitis” value was “normalizes compromised immunological responses”. Besides, in test [3] (single dosing), the “DNFB-induced IFN-γ decrease” value is given as “reverses DNFB-induced IFN-γ decrease”, the “DNFB-induced IL-4 increase” value is recorded as “reverses DNFB-induced IL-4 increase”, the “DNFB-induced IL-5 increase” value is given as “reverses DNFB-induced IL-5 increase” and the “DNFB-induced IgE increase” value was “reverses DNFB-induced IgE increase”. In test [4], the DNFB-induced scratching entry is “prevents DNFB-induced scratching; also recorded: prevented itching”; the “Dose of full effect, DNFB-induced scratching” value is recorded as 1-3%; the “Lowest effective dose, DNFB-induced scratching” value was 0.001%.
